Where “and” joins values, the source holds several entries; their conditions need not be identical. Identical values can stand only once. Marks after values point to notes of the source that are not given here.
Key:
Assay type in all cases: cell-based, human
P53 = test: qPCR gene expression of P53 in PACA2 cells; conditions: treatment with IC50 conc., negative control = 1
Experimental: (§1) Total RNA was isolated from breast and pancreatic cancer cell lines according to the manufacturer's protocol using RNeasy Mini Kit (Qiagen) supplemented with the DNaseI (Qiagen) digestion step. To digest DNA residues, the isolated total RNA was treated with one unit of RQ1 RNAse-free DNAse (Invitrogen), re-suspended in DEPC-treated water, and quantified using a spectrophotometer at 260 nm. The purity of total RNA was assessed by the 260/280 nm ratio, which was between 1.8 and 2.1. Moreover, RNA integrity was assured by ethidium bromide-stain analysis of 28S and 18S bands by formaldehyde-containing agarose gel electrophoresis. Complete poly(A)+ RNA isolated from breast and pancreatic cell lines was reverse-transcribed into cDNA in a total volume of 20 μl using the RevertAidTM First Strand cDNA Synthesis Kit (Fermentas). […] Subsequently, the reaction tubes containing RT preparations were flash-cooled in an ice chamber until used for cDNA amplification using a quantitative real-time polymerase chain reaction (qRT-PCR).
(§2) Determination of the breast and pancreatic cell line cDNA copy number was carried out using the StepOne™ Real-Time PCR system from Applied Biosystems (Thermo Fisher Scientific). […] The relative quantification of the target to the reference was performed using the 2^−ΔΔCT method (Yang et al., 2017).[51]

PACA2 cell lines = test: DNA fragmentation assay, PACA2; conditions: for DNA fragmentation, Inhibition (%): PACA2; for DNA fragmentation (%) M ± SEM: PACA2, 24 hours of exposure, −ve control 8.3 ± 0.31; for DNA fragmentation, Change: PACA2, change versus −ve control
Experimental: (§3) The DNA fragmentation assay in breast and pancreatic cancer cell lines was performed in accordance with the method of Helmy et al., 2022 (ref. [15]) with some modifications. Briefly, after 24 hours of exposure of breast and pancreatic cancer cell lines to the tested chalcone compounds in different Petri dishes (60 × 15 mm, Greiner), the cells were trypsinized, suspended, homogenized in 1 ml of medium, and centrifuged (10 min at 800 rpm). Low-molecular-weight genomic DNA was extracted as described in Yawata et al., 1998.[52] Approximately 1 × 10^6 cells were plated and treated with the tested substances in various treatments. All the cells (including floating cells) were harvested by trypsinization and washed with Dulbecco's phosphate-buffered saline. Cells were lysed with the lysis buffer containing 10 mM Tris (pH 7.4), 150 mM NaCl, 5 mM EDTA, and 0.5% Triton X-100 for 30 minutes on ice. Lysates were vortexed and cleared by centrifugation at 10 000 g for 20 min. Fragmented DNA in the supernatant was extracted with an equal volume of a neutral phenol/chloroform/isoamyl alcohol mixture (25 : 24 : 1) and analyzed electrophoretically on 2% agarose gels containing 0.1 μg ml^−1 ethidium bromide.

Paca2 = test: Comet assay (DNA damage), pancreatic cancer cell line; conditions: for DNA damaged cells% (mean ± SEM): Paca2, comet assay, −ve 10.12 ± 0.85; for No. of cells, Class 0 / No. of cells, Class 1 / No. of cells, Class 2 / No. of cells, Class 3: Paca2, of 405 cells; for No. of cells, Class 0: class 0 = no tail; for No. of cells, Class 1: class 1 = tail length < diameter of nucleus; for No. of cells, Class 2: class 2 = tail length between 1× and 2× the diameter of nucleus; for No. of cells, Class 3: class 3 = tail length > 2× the diameter of nucleus
Experimental: (§4) Olive et al. (1990) used pancreatic and breast cancer cell lines to measure the DNA damage using the comet test.[53] Approximately 1.5 × 10^4 cells were imbedded in 0.75% low-gelling-temperature agarose after trypsin treatment to generate a single-cell suspension, which was then quickly pipetted onto a pre-coated microscope slide. Cell samples were lysed in 0.5% SDS, 30 mM EDTA, pH 8.0, for four hours at 50 °C. Samples were electrophoresed for 25 minutes at 0.6 V cm^−1 after being rinsed overnight at room temperature in Tris/borate/EDTA buffer, pH 8.0. Propidium iodide was then added for staining. A fluorescent microscope equipped with a CCD camera was used to observe the slides, and 150 unique comet photos from each sample were examined to determine the tail moment, DNA content, and percentage of DNA in the tail. To find the fraction of cells with DNA damage that resemble comets in each sample, around 100 cells were analyzed. Based on perceived comet tail length migration and relative proportion of DNA in the nucleus, the non-overlapping cells were randomly chosen and visually assigned a score on an arbitrary scale of 0–3. Class 0 = no detectable DNA damage and no tail; class 1 = tail with a length less than the nucleus diameter; class 2 = tail with length between 1× and 2× the nuclear diameter; and class 3 = tail longer than 2× the nucleus diameter.[54]

Bcl-2 = test: qPCR gene expression of Bcl-2 in MCF7 cells; conditions: treatment with IC50 conc., negative control = 1
Experimental: as §1, §2

CDK4 = test: qPCR gene expression of CDK4 in MCF7 cells; conditions: treatment with IC50 conc., negative control = 1
Experimental: as §1, §2

P21 = test: qPCR gene expression of P21 in MCF7 cells; conditions: treatment with IC50 conc., negative control = 1
Experimental: as §1, §2

MCF7 cell lines = test: DNA fragmentation assay, MCF7; conditions: for DNA fragmentation, Inhibition (%): MCF7; for DNA fragmentation (%) M ± SEM: MCF7, 24 hours of exposure, −ve control 8.6 ± 0.36; for DNA fragmentation, Change: MCF7, change versus −ve control
Experimental: as §3

MCF-7 = test: Comet assay (DNA damage), breast cancer cell line; conditions: for DNA damaged cells% (mean ± SEM): MCF-7, comet assay, −ve 9.63 ± 0.64; for No. of cells, Comets: MCF-7, of 405 cells analyzed; for No. of cells, Class 0 / No. of cells, Class 1 / No. of cells, Class 2 / No. of cells, Class 3: MCF-7, of 405 cells; for No. of cells, Class 0: class 0 = no tail; for No. of cells, Class 1: class 1 = tail length < diameter of nucleus; for No. of cells, Class 2: class 2 = tail length between 1× and 2× the diameter of nucleus; for No. of cells, Class 3: class 3 = tail length > 2× the diameter of nucleus
Experimental: as §4

SMILES | Gene expression P53 (P53) [fold change/GAPDH] | DNA fragmentation, Inhibition (%) (PACA2 cell lines) | DNA fragmentation (%) M ± SEM (PACA2 cell lines) | DNA fragmentation, Change (PACA2 cell lines) | No. of cells, Class 0 (Paca2) | No. of cells, Class 1 (Paca2) | No. of cells, Class 2 (Paca2) | No. of cells, Class 3 (Paca2) | Gene expression Bcl-2 (Bcl-2) [fold change/GAPDH] | Gene expression CDK4 (CDK4) [fold change/GAPDH] | Gene expression P21 (P21) [fold change/GAPDH] | DNA fragmentation, Inhibition (%) (MCF7 cell lines) | DNA fragmentation (%) M ± SEM (MCF7 cell lines) | DNA fragmentation, Change (MCF7 cell lines) | No. of cells, Comets (MCF-7) | No. of cells, Class 0 (MCF-7) | No. of cells, Class 1 (MCF-7) | No. of cells, Class 2 (MCF-7) | No. of cells, Class 3 (MCF-7) | also measured
Cc1c(C(=O)C=Cc2nn(-c3ccccc3)cc2-c2ccc([N+](=O)[O-])cc2)c(-c2cccs2)nn1-c1ccc([N+](=O)[O-])cc1 [Compound 9e, 1-(5-Methyl-1-(4-nitrophenyl)-3-(thiophen-2-yl)-1H-pyrazol-4-yl)-3-(4-(4-nitrophenyl)-1-phenyl-1H-pyrazol-3-yl)prop-2-en-1-one] | 3.89 | 24.45 | 24.2 ± 0.57% and 24.2 ± 0.57^a % | 15.9 | 290 | 35 | 37 | 43 |  |  |  |  |  |  |  |  |  |  |  | DNA damaged cells% (mean ± SEM) (Paca2): 28.40 ± 1.04% and 28.40 ± 1.04^a %; No. of cells, Comets (Paca2; Paca2, of 405 cells analyzed): 115
COc1cccc2c1C(=O)c1c(O)c3c(c(O)c1C2=O)C[C@@](O)(C(=O)CO)C[C@@H]3O[C@H]1C[C@H](N)[C@H](O)[C@H](C)O1 [Doxorubicin, reference compound] | 2.21 | 17.94 | 21.5 ± 0.46% | 13.2 | 299 | 38 | 32 | 36 | 0.56 | 0.39 | 4.18 | 23.67 | 25.2 ± 0.65% | 16.6 | 89 | 316 | 27 | 33 | 29 | DNA fragmentation (%) M ± SEM (MCF7 cell lines; listed as MCF7 +ve control): 25.2 ± 0.65^a %; DNA fragmentation (%) M ± SEM (PACA2 cell lines; listed as PACA (+ve) control): 21.5 ± 0.46^a %; DNA damaged cells% (mean ± SEM) (MCF-7; listed as Dox): 21.98 ± 0.91^b %; DNA damaged cells% (mean ± SEM) (Paca2; listed as Dox): 26.17 ± 1.38% and 26.17 ± 1.38^a %
Cc1nn(-c2ccccc2)c(C=CC(=O)c2c(-c3cccs3)nn(-c3ccc([N+](=O)[O-])cc3)c2C)c1Cl [Compound 7d, 3-(4-Chloro-3-methyl-1-phenyl-1H-pyrazol-5-yl)-1-(5-methyl-1-(4-nitrophenyl)-3-(thiophen-2-yl)-1H-pyrazol-4-yl)prop-2-en-1-one] |  |  |  |  |  |  |  |  | 0.64 | 0.43 | 3.95 | 20.48 | 21.8 ± 0.94% and 21.8 ± 0.94^a % | 13.2 | 105 | 300 | 30 | 41 | 34 | DNA damaged cells% (mean ± SEM) (MCF-7): 25.93 ± 1.08^a %
